Assay results from patent US11542492B2 (Celgene CAR LLC, priority 2009, dated 2023).

Molecular target: T1, HCV NS3/4A 1b protease enzyme (wild type) (Hepatitis C virus genotype 1b, UniProt P26663)
T1 construct: 10× stocks of NS3/4A protease enzyme from Bioenza (Mountain View, Calif.); purchased Bioenza
Assay: HCV protease FRET assay (IC50_APP), wild type NS3/4A 1b
Assay type: biochemical
Protocol: HCV Protease FRET Assay for WT and Mutated NS3/4A 1b Enzymes (IC50_APP).
The following protocol was used to generate “apparent” IC50 (IC50_APP) values as depicted in Table 6, below. Without wishing to be bound by any particular theory, it is believed that IC50_APP, contrasted with IC50 values, may provide a more useful indication of time-dependent inhibition, and are thus more representative of binding affinity. […] 5 μL of each enzyme were added to Corning (#3575) 384-well, black, microtiter plates (Corning, N.Y.) after spotting a 0.5 μL volume of 50% DMSO and serially diluted compounds prepared in 50% DMSO. Protease reactions were immediately started after enzyme addition with the addition of 45 μL of the FRET substrate and monitored for 60-90 minutes at λex485/λem520 in a Synergy plate reader from BioTek (Winooski, Vt.). At the conclusion of each assay, progress curves from each well were examined for linear reaction kinetics and fit statistics (R^2, 95% confidence intervals, absolute sum of squares). Initial velocity (0 minutes to 15+ minutes) from each reaction was determined from the slope of a plot of relative fluorescence units vs time (minutes) and then plotted against inhibitor concentration as a percent of the no inhibitor and no enzyme controls to estimate apparent IC50 from log [Inhibitor] vs Response. (Variable Slope model in GraphPad Prism from GraphPad Software (San Diego, Calif.).)

T1 sequence (P26663 1658-1711): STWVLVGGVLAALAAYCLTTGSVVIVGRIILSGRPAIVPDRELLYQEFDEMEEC
T1 sequence (P26663 1027-1657): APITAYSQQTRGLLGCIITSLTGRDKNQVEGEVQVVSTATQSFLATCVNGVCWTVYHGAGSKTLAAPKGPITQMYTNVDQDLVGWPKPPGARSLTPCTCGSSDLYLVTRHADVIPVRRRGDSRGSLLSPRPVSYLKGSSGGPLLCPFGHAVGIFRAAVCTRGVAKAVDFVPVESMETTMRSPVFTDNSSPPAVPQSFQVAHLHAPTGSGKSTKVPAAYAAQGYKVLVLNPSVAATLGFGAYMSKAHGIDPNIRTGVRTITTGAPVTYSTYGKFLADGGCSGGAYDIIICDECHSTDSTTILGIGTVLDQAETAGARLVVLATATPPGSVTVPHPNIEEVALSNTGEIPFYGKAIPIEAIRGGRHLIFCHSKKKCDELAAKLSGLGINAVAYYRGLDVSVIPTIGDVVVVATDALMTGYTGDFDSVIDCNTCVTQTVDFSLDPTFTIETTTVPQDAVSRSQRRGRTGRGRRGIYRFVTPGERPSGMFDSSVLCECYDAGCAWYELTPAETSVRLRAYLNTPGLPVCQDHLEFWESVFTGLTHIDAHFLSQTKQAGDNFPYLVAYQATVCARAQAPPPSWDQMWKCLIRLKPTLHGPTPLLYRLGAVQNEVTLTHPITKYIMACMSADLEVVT

Compound: C=C[C@@H]1C[C@]1(NC(=O)[C@@H]1CC(OC(=O)N2Cc3cccc(F)c3C2)CN1C(=O)[C@H](CNC(=O)[C@H]1CCC(=O)O1)NC(=O)OC(C)(C)C)C(=O)NS(=O)(=O)C1CC1 (stereo partly drawn) [XVI-20, (5S)-1-((S)-2-(tert-butoxycarbonylamino)-3-((R)-5-oxotetrahydrofuran-2-carboxamido)propanoyl)-5-((1R,2S)-1-(cyclopropylsulfonylcarbamoyl)-2-vinylcyclopropylcarbamoyl)pyrrolidin-3-yl 4-fluoroisoindoline-2-carboxylate]
- IC50: 1 to 10 nM

Compound: C=C[C@@H]1C[C@]1(NC(=O)[C@@H]1CC(OC(=O)N2Cc3cccc(F)c3C2)CN1C(=O)[C@H](CN(C)C(=O)[C@@H]1CCC(=O)O1)NC(=O)OC(C)(C)C)C(=O)NS(=O)(=O)C1CC1 (stereo partly drawn) [XVI-19, (5S)-1-((S)-2-(tert-butoxycarbonylamino)-3-((S)-N-methyl-5-oxotetrahydrofuran-2-carboxamido)propanoyl)-5-((1R,2S)-1-(cyclopropylsulfonylcarbamoyl)-2-vinylcyclopropylcarbamoyl)pyrrolidin-3-yl 4-fluoroisoindoline-2-carboxylate]
- IC50: 1 to 10 nM

Compound: C=C[C@@H]1C[C@]1(NC(=O)[C@@H]1CC(OC(=O)N2Cc3cccc(F)c3C2)CN1C(=O)[C@H](CNC(=O)[C@@H]1CCC(=O)O1)NC(=O)OC(C)(C)C)C(=O)NS(=O)(=O)C1CC1 (stereo partly drawn) [XVI-21, (5S)-1-((S)-2-(tert-butoxycarbonylamino)-3-((S)-5-oxotetrahydrofuran-2-carboxamido)propanoyl)-5-((1R,2S)-1-(cyclopropylsulfonylcarbamoyl)-2-vinylcyclopropylcarbamoyl)pyrrolidin-3-yl 4-fluoroisoindoline-2-carboxylate]
- IC50: 1 to 10 nM

Compound: C=C[C@@H]1C[C@]1(NC(=O)[C@@H]1CC(OC(=O)N2Cc3cccc(F)c3C2)CN1C(=O)[C@H](CN(C)C(=O)[C@H]1CCC(=O)O1)NC(=O)OC(C)(C)C)C(=O)NS(=O)(=O)C1CC1 (stereo partly drawn) [XVI-18, (5S)-1-((S)-2-(tert-butoxycarbonylamino)-3-((R)-N-methyl-5-oxotetrahydrofuran-2-carboxamido)propanoyl)-5-((1R,2S)-1-(cyclopropylsulfonylcarbamoyl)-2-vinylcyclopropylcarbamoyl)pyrrolidin-3-yl 4-fluoroisoindoline-2-carboxylate]
- IC50: 1 to 10 nM

Compound: C=C[C@@H]1C[C@]1(NC(=O)[C@@H]1CC(OC(=O)N2Cc3cccc(F)c3C2)CN1C(=O)[C@H]1CCC(=O)O1)C(=O)NS(=O)(=O)C1CC1 (stereo partly drawn) [XVI-22, (5S)-5-((1R,2S)-1-(cyclopropylsulfonylcarbamoyl)-2-vinylcyclopropylcarbamoyl)-1-((R)-5-oxotetrahydrofuran-2-carbonyl)pyrrolidin-3-yl 4-fluoroisoindoline-2-carboxylate]
- IC50: > 1000 nM

Compound: C=C[C@@H]1C[C@]1(NC(=O)[C@@H]1CC(OC(=O)N2Cc3cccc(F)c3C2)CN1C(=O)[C@@H]1CCC(=O)O1)C(=O)NS(=O)(=O)C1CC1 (stereo partly drawn) [XVI-23, (5S)-5-((1R,2S)-1-(cyclopropylsulfonylcarbamoyl)-2-vinylcyclopropylcarbamoyl)-1-((S)-5-oxotetrahydrofuran-2-carbonyl)pyrrolidin-3-yl 4-fluoroisoindoline-2-carboxylate]
- IC50: 100 to 1000 nM

Compound: C=C[C@@H]1C[C@]1(NC(=O)[C@@H]1CC(OC(=O)N2Cc3cccc(F)c3C2)CN1C(=O)[C@H](CCNC(=O)[C@@H]1CCC(=O)O1)NC(=O)OC(C)(C)C)C(=O)NS(=O)(=O)C1CC1 (stereo partly drawn) [XVI-11, (5S)-1-((S)-2-(tert-butoxycarbonylamino)-4-((S)-5-oxotetrahydrofuran-2-carboxamido)butanoyl)-5-((1R,2S)-1-(cyclopropylsulfonylcarbamoyl)-2-vinylcyclopropylcarbamoyl)pyrrolidin-3-yl 4-fluoroisoindoline-2-carboxylate]
- IC50: 100 to 1000 nM
